In the assay the test system is hER. The assay can be described thus: HPTLC-pYES (planar yeast estrogen screen) on RP-18 W plate, lac-Z reporter / MUG fluorescence. The conditions noted are these: for E2Eq: E2 equivalent calculated as EC50E2/EC50sample, recombinant Saccharomyces cerevisiae BJ3505, dose-response curves after separation on RP 18W plate, n=4; for estrogenic/bioactive effect in pYES: standard solutions or sample zone detected with the pYES, qualitative. The format is cell-based, human.

Structures are written as SMILES.

Protocol: HPTLC. Standard and sample solutions (0.1-10 µL) were applied on the HPTLC plate RP-18 W (Merck Millipore, Darmstadt, Germany) as 6.5 mm bands by the Automatic TLC Sampler 4 (ATS4; CAMAG, Muttenz, Switzerland). […] The standard mixture was applied by overspaying of the individual standard solutions, which allowed flexibility for individual mixtures and volumes. For determination of the recovery rate, 0.1 µL P1 sample was sprayed on the plate and oversprayed with 0.1 µL - 2 µL CAPE standard solution. After sample application, the start zones were dried for 1 min using a hair dryer. Development was performed in a Twin Trough Chamber (20 x 10 cm, CAMAG), using n-hexane - toluene - ethyl acetate 4:1.5:1, v/v/v (all from ROTH) up to a migration distance of 70 mm. After development, the plate was dried with cold air using a hair dryer for 2 min to remove the residual solvent. The developed plate was documented at 366 nm illumination using the TLC Visualizer (CAMAG).
Cell cultivation. Saccharomyces cerevisiae BJ3505 (protease-deficient, MATα, PEP4: HIS3, Prb1Δ1.6R, HIS3Δ200, lys2-208, trp1Δ101, ura3-52) generated by McDonnell et al. (61, 62) was used for the pYES-assay. All experimental studies were based on stock of the recombinant estrogen sensitive yeast cells stored in 30% glycerol supplemented growth media, consisting of D-glucose 1 g/L, yeast nitrogen base 6.8 g/L, both Sigma Aldrich, Steinheim, Germany, and amino acid components according to Routledge and Sumpter (50), at -80 °C. From the stock, cells were streaked on an agar plate with growth medium (30°C, two days) to supply colonies for further suspension cultivation. Shaking suspension cultures were inoculated in 20 mL growth medium and cultured at 30 °C at 100 rpm for 18 h. Prior to the assay, cell concentration and viability determination was performed using a hemocytometer and trypan blue (0.4% Sigma Aldrich) staining. For the pYES, the cell number was adjusted to 2.5 x 10^8 cells in 50 mL with 150 µM CuSO4 supplemented growth medium. To remain constant cell quality within the exponential growth phase for further studies, cells were split daily by 1:10 dilution.
HPTLC-pYES. As the HPTLC was developed and cells were prepared, the pYES assay was started. The plate was automatically immersed into the cell suspension using the TLC Immersion Device (CAMAG) with a speed of 3.5 cm/s and an immersion time of 5 s. Thus, the cell suspension was homogeneously transferred onto the plate surface. The wettened plate was incubated in a horizontal position in a plastic box under almost 100% humidified air at 30 °C for 3 h. Thereafter, the plate was dried with cold air using a hair dryer for 2 min. For determination of the resulting ß-galactosidase, the plate was treated with the substrate 4-methylumbelliferyl-ß-D-galactopyranoside (MUG, Roth). ß-galactosidase acts on the substrate MUG to produce 4-methylumbelliferone (MU), detected as blue fluorescence at pH>7. MUG was dissolved in DMSO (20 mg/mL, Roth) and added to the reaction buffer (citric acid 6 g/L, disodium hydrogen phosphate 10 g/L, pH 12, Merck) to a final concentration of 0.5 mg/mL. The dried plate was immersed in the substrate solution according to the previous speed and immersion time. A second incubation period of 60 min at 37°C followed. The substrate reaction was terminated by immersion of the plate into a solution of glycine - NaOH (0.1 M, Roth), pH°12. […] Fluorescence measurement at 366/>400 nm was performed with the mercury lamp using the TLC Scanner 3 (CAMAG). Images were taken at 366 nm illumination using the Reprostar 3 documentation system (CAMAG).
The half maximal effective concentration (EC50) was calculated for comparison of the receptor affinities.

For the compound `CC(C)(c1ccc(O)cc1)c1ccc(O)cc1` [BPA, bisphenol A], the E2Eq is reported as 3.3x10^-4.

In the case of `O=C(/C=C/c1ccc(O)c(O)c1)OCCc1ccccc1` [CAPE, Caffeic acid phenethyl ester], the “estrogenic/bioactive effect in pYES” value is recorded as “bioactive EDC zone”.

As for `C#C[C@]1(O)CC[C@H]2[C@@H]3CCc4cc(O)ccc4[C@H]3CC[C@@]21C` [EE2, 17α-ethinylestradiol], the E2Eq was 0.3.

As to `CCCCCCCCCc1ccc(O)cc1` [NP, 4-n-Nonylphenol], the E2Eq is 2.3x10^-4.

`O=c1cc(-c2ccc(O)c(O)c2)oc2cc(O)cc(O)c12` [luteolin]: the “estrogenic/bioactive effect in pYES” value is reported as “showed an estrogenic/bioactive effect”.

Consider `O=c1c(O)c(-c2ccc(O)c(O)c2)oc2cc(O)cc(O)c12` [quercetin], for which the “estrogenic/bioactive effect in pYES” value is recorded as “showed an estrogenic/bioactive effect”.

The values are drawn from EP2919004A1, “Bioassays on modified TLC/HPTLC plates” (Merck Patent GmbH, priority 2014, dated 2015).
